According to patent publication US4448962A, “Substituted quinoline carboxylic acid derivatives” (Kyorin Seiyaku Kabushiki Kaisha, priority 1978, dated 1984):
≈ marks a conversion by molar mass, not a printed value. Where a name gives a salt, the structure may show the parent alone. Read-outs that look alike come from different tables or passages of the source.

Legend:
Assay in all cases: Antibacterial spectrum (Minimum Inhibitory Concentration)
Type in all cases: cell-based
Ps. aeruginosa IFO 12689 = details: Pseudomonas aeruginosa
Text: (§1) The antibacterial tests were done according to the method authorized by the Chemotherapeutic Society of Japan.

[1] = system: Pseudomonas aeruginosa V-1
Text: as §1

[2] = system: Staphylococcus aureus 209P; details: read-out: Minimum Inhibitory Concentration
Text: as §1

E. coli ATCC 10536 = details: Escherichia coli
Text: as §1

[3] = system: Bacillus subtilis PCI 219
Text: as §1

Sta. aureus ATCC 14775 = details: Staphylococcus aureus
Text: as §1

[4] = system: Klebsiella pneumoniae IFO 3512
Text: as §1

Pr. vulgaris XK Denken = details: Proteus vulgaris, read-out: Minimum Inhibitory Concentration
Text: as §1

[5] = system: Escherichia coli NIHJ JC-2
Text: as §1

[6] = system: Proteus vulgaris IFO 3167
Text: as §1

[7] = IFO12689, Ps. aeruginosa IFO 12689, Gram -, read-out: Minimum Inhibitory Concentration
[8] = V1, Pseudomonas aeruginosa V-1, Gram -, read-out: Minimum Inhibitory Concentration
[9] = Staphylococcus aureus 209P, Gram +
[10] = ATCC10536, E. coli ATCC 10536, Gram -, read-out: Minimum Inhibitory Concentration
[11] = PCI219, Bacillus subtilis PCI 219, Gram +, read-out: Minimum Inhibitory Concentration
[12] = ATCC14775, Sta. aureus ATCC 14775, Gram +, read-out: Minimum Inhibitory Concentration
[13] = IFO3512, Klebsiella pneumoniae IFO 3512, Gram -, read-out: Minimum Inhibitory Concentration
[14] = NIHJJC2, Escherichia coli NIHJ JC-2, Gram -, read-out: Minimum Inhibitory Concentration
[15] = IFO3167, Proteus vulgaris IFO 3167, Gram -, read-out: Minimum Inhibitory Concentration
[16] = IFO12689, read-out: Minimum Inhibitory Concentration
[17] = Pseudomonas aeruginosa, V1, read-out: Minimum Inhibitory Concentration
[18] = ATCC10536, read-out: Minimum Inhibitory Concentration
[19] = Bacillus subtilis, PCI219, read-out: Minimum Inhibitory Concentration
[20] = ATCC14775, read-out: Minimum Inhibitory Concentration
[21] = Klebsiella pneumoniae, IFO3512, read-out: Minimum Inhibitory Concentration
[22] = Escherichia coli, NIHJJC2, read-out: Minimum Inhibitory Concentration
[23] = Proteus vulgaris, IFO3167, read-out: Minimum Inhibitory Concentration

| Compound | MIC (Ps. aeruginosa IFO 12689; [7]) [µg/mL] | MIC [1, 8] [µg/mL] | MIC [2, 9] [µg/mL] | MIC (E. coli ATCC 10536; [10]) [µg/mL] | MIC [3, 11] [µg/mL] | MIC (Sta. aureus ATCC 14775; [12]) [µg/mL] | MIC [4, 13] [µg/mL] | MIC (Pr. vulgaris XK Denken; Pr. vulgaris XK Denken, Gram -) [µg/mL] | MIC [5, 14] [µg/mL] | MIC [6, 15] [µg/mL] | MIC (Ps. aeruginosa IFO 12689; [16]) [µg/mL] | MIC [1, 17] [µg/mL] | MIC ([2]; Staphylococcus aureus, 209P) [µg/mL] | MIC (E. coli ATCC 10536; [18]) [µg/mL] | MIC [3, 19] [µg/mL] | MIC (Sta. aureus ATCC 14775; [20]) [µg/mL] | MIC [4, 21] [µg/mL] | MIC (Pr. vulgaris XK Denken) [µg/mL] | MIC [5, 22] [µg/mL] | MIC [6, 23] [µg/mL] |
| --- | --- | --- | --- | --- | --- | --- | --- | --- | --- | --- | --- | --- | --- | --- | --- | --- | --- | --- | --- | --- |
| CCn1cc(C(=O)O)c(=O)c2cc(F)c(N3CCN(C(C)=O)CC3)cc21 [Example 29, 1-ethyl-6-fluoro-1,4-dihydro-4-oxo-7-(4-acetyl-1-piperazinyl)quinoline-3-carboxylic acid] | 25 (≈ 69.2 µM) | 25 (≈ 69.2 µM) | 0.78 (≈ 2.16 µM) | 1.56 (≈ 4.32 µM) | 0.2 (≈ 0.553 µM) | 1.56 (≈ 4.32 µM) | < 0.1 | 1.56 (≈ 4.32 µM) | 1.56 (≈ 4.32 µM) | 0.39 (≈ 1.08 µM) |  |  |  |  |  |  |  |  |  |  |
| Cl.Cn1cc(C(=O)O)c(=O)c2cc(F)c(N3CCNCC3)cc21 [Example 18, 1-methyl-6-fluoro-7-(1-piperazinyl)-4-oxo-1,4-dihydroquinoline-3-carboxylic acid hydrochloride] |  |  |  |  |  |  |  |  |  |  | 3.13 | 1.56 | 6.25 | 0.39 | 0.78 | 12.5 | 0.39 | 1.56 | 0.39 | 0.39 |
| CCn1cc(C(=O)O)c(=O)c2ccc(N3CCNCC3)c(F)c21 [Example 16, 1-ethyl-7-(1-piperazinyl)-8-fluoro-4-oxo-1,4-dihydroquinoline-3-carboxylicacid hydrochloric] | 12.5 (≈ 39.1 µM) | 1.56 (≈ 4.89 µM) | 12.5 (≈ 39.1 µM) | 0.78 (≈ 2.44 µM) | 3.13 (≈ 9.8 µM) | 25 (≈ 78.3 µM) | 0.2 (≈ 0.626 µM) | 1.56 (≈ 4.89 µM) | 0.78 (≈ 2.44 µM) | 0.78 (≈ 2.44 µM) |  |  |  |  |  |  |  |  |  |  |
| CCn1cc(C(=O)O)c(=O)c2cc(Cl)c(N3CCN(Cc4ccccc4)CC3)cc21 [Example 11, 1-ethyl-6-chloro-7-(4-benzyl-1-piperazinyl)-4-oxo-1,4-dihydroquinoline-3-carboxylic acid] | > 100 |  | 3.13 (≈ 7.35 µM) | 25 (≈ 58.7 µM) | 1.56 (≈ 3.66 µM) |  | 0.78 (≈ 1.83 µM) | 50 (≈ 117 µM) | 100 (≈ 235 µM) | 100 (≈ 235 µM) |  | > 100 |  |  |  |  |  |  |  |  |
| O=C(O)c1cn(Cc2ccccc2)c2cc(N3CCNCC3)c(F)cc2c1=O [Example 20, 1-benzyl-6-fluoro-1,4-dihydro-4-oxo-7-(1-piperazinyl)-quinoline-3-carboxylic acid] |  | 1.56 (≈ 4.09 µM) | 1.56 (≈ 4.09 µM) | 0.39 (≈ 1.02 µM) | 0.78 (≈ 2.05 µM) | 6.25 (≈ 16.4 µM) | 0.39 (≈ 1.02 µM) | 0.78 (≈ 2.05 µM) | 0.78 (≈ 2.05 µM) | 0.39 (≈ 1.02 µM) | 6.25 (≈ 16.4 µM) |  |  |  |  |  |  |  |  |  |
| CCN1CCN(c2cc3c(cc2Cl)c(=O)c(C(=O)O)cn3CC)CC1 [Example 10, 1-ethyl-6-chloro-7-(4-ethyl-1-piperazinyl)-4-oxo-1,4-dihydroquinoline-3-carboxylic acid] | > 100 | 50 (≈ 137 µM) | 0.78 (≈ 2.14 µM) | 0.78 (≈ 2.14 µM) | 0.78 (≈ 2.14 µM) |  | < 0.2 | 1.56 (≈ 4.29 µM) | 1.56 (≈ 4.29 µM) | 1.56 (≈ 4.29 µM) |  |  |  |  |  |  |  |  |  |  |
| CCN1CCN(c2cc3c(cc2F)c(=O)c(C(=O)O)cn3CC)CC1 [Example 2, 1-ethyl-6-fluoro-7-(4-ethyl-1-piperazinyl)-4-oxo-1,4-dihydroquinoline-3-carboxylic acid] |  | 3.13 (≈ 9.01 µM) |  | 0.1 (≈ 0.288 µM) |  |  | < 0.025 | 0.2 (≈ 0.576 µM) | 0.1 (≈ 0.288 µM) | 0.2 (≈ 0.576 µM) | 6.25 (≈ 18 µM) |  |  |  |  |  |  |  |  |  |
| CCn1cc(C(=O)O)c(=O)c2cc(Cl)c(N3CCN(C(=O)C(F)(F)F)CC3)cc21 [Example 12, 1-ethyl-6-chloro-7-(4-trifluoroacetyl-1-piperazinyl)-4-oxo-1,4-dihydroquinoline-3-carboxylic acid] | 50 (≈ 116 µM) | 25 (≈ 57.9 µM) | 1.56 (≈ 3.61 µM) | 0.78 (≈ 1.81 µM) | 0.78 (≈ 1.81 µM) |  | 0.78 (≈ 1.81 µM) | 0.78 (≈ 1.81 µM) |  | 0.78 (≈ 1.81 µM) |  |  |  |  |  |  |  |  | 3.13 (≈ 7.25 µM) |  |
| CC(=O)N1CCN(c2cc3c(cc2F)c(=O)c(C(=O)O)cn3CCO)CC1 [Example 26, 1-(2-hydroxyethyl)-6-fluoro-7-(4-acetyl-1-piperazinyl)-4-oxo-1,4-dihydroquinoline-3-carboxylic acid] | > 25 | > 25 | > 25 | 25 (≈ 66.2 µM) | 12.5 (≈ 33.1 µM) | > 25 | 6.25 (≈ 16.6 µM) | > 25 | > 25 | > 25 |  |  |  |  |  |  |  |  |  |  |
| CCCn1cc(C(=O)O)c(=O)c2cc(F)c(N3CCNCC3)cc21 [Example 19, 1-propyl-6-fluoro-7-(1-piperazinyl)-4-oxo-1,4-dihydroquinoline-3-carboxylic acid hydrochloride] | 12.5 | 3.13 | 1.56 | 0.39 | 0.39 | 3.13 | 0.2 | 0.39 | 0.2 | 0.2 |  |  |  |  |  |  |  |  |  |  |
| CCn1cc(C(=O)O)c(=O)c2cc(Cl)c(N3CCN(C)CC3)cc21 [Example 9, 1-ethyl-6-chloro-7-(4-methyl-1-piperazinyl)-4-oxo-1,4-dihydro-quinoline-3-carboxylic acid] | 50 (≈ 143 µM) | 25 (≈ 71.5 µM) | 1.56 (≈ 4.46 µM) | 0.78 (≈ 2.23 µM) | 0.78 (≈ 2.23 µM) |  |  | 0.78 (≈ 2.23 µM) | 1.56 (≈ 4.46 µM) | 0.78 (≈ 2.23 µM) |  |  |  |  |  |  | < 0.2 |  |  |  |
| Cl.O=C(O)c1cn(CCO)c2cc(N3CCNCC3)c(F)cc2c1=O [Example 25, 1-(2-hydroxyethyl)-6-fluoro-7-(1-piperazinyl)-4-oxo-1,4-dihydroquinoline-3-carboxylic acid hydrochloride] |  |  |  |  |  |  |  |  |  |  | > 25 | 3.13 | 1.56 | 0.2 | 1.56 | > 25 | 0.05 | 3.13 | 0.39 | 0.2 |
| C=CCn1cc(C(=O)O)c(=O)c2cc(F)c(N3CCNCC3)cc21 [Example 21, hydrochloride] |  | 1.56 | 3.13 | 0.2 | 0.78 | 6.25 | 0.2 | 0.39 | 0.2 | 0.2 | 6.25 |  |  |  |  |  |  |  |  |  |
| CCn1cc(C(=O)O)c(=O)c2cc(Cl)c(N3CCN(C4OC(=O)c5ccccc54)CC3)cc21 (stereo not drawn) [Example 15, 1-ethyl-6-chloro-7-(4-phthalidyl-1-piperazinyl)-4-oxo-1,4-dihydroquinoline-3-carboxylic acid] | 12.5 (≈ 26.7 µM) | 6.25 (≈ 13.4 µM) | 1.56 (≈ 3.33 µM) | 0.2 (≈ 0.427 µM) | 0.78 (≈ 1.67 µM) |  | 0.78 (≈ 1.67 µM) | 0.39 (≈ 0.833 µM) | 0.2 (≈ 0.427 µM) | 0.39 (≈ 0.833 µM) |  |  |  |  |  |  |  |  |  |  |
